Assay results: ChEMBL document CHEMBL1139664, “Identification of a novel series of tetrahydrodibenzazocines as inhibitors of 17beta-hydroxysteroid dehydrogenase type 3” (Bioorg Med Chem Lett, 2006)

Legend:
[1] = biological target: T1, 17-beta-hydroxysteroid dehydrogenase type 3 (Homo sapiens, UniProt P37058); assay: Inhibition of 17beta-HSD3 by SEAP assay
T1 sequence (P37058 whole entry): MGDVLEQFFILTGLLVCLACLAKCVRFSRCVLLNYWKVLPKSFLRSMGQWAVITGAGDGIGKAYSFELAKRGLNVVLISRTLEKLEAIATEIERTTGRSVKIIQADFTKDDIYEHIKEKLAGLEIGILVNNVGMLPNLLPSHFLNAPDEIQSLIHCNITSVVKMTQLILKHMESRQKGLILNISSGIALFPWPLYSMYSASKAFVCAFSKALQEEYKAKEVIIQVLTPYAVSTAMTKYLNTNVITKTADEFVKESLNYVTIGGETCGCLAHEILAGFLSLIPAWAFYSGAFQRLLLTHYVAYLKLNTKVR

[2] = biological target: T1, 17-beta-hydroxysteroid dehydrogenase type 3; assay: Inhibition of 17beta-HSD3
Liver microsomes = assay: Stability in human liver microsome at 10 uM; assay type: ADME

SMILES	IC50 [1] [µM]	IC50 [2] [µM]	Stability (Liver microsomes) [nmol/mg/min]
COc1ccc2c(c1)SCc1ccccc1CN2C(C)=O	> 10	2.06	
CC(=O)N1Cc2ccc(NC(=O)c3ccccc3)cc2CCc2ccccc21	0.26	0.16	
CC(=O)N1Cc2ccc(C(N)=O)cc2CCc2ccccc21	2.98	> 1	
CC(=O)N1Cc2ccc(NCc3ccccc3)cc2CCc2ccccc21	0.004	0.008	
CC(=O)N1Cc2cc(Br)ccc2CCc2ccccc21	0.032	0.009	
CC(=O)N1Cc2ccccc2CSc2cc(Cl)c(Cl)cc21	0.13	0.01	
CC(=O)N1Cc2ccccc2CSc2cc(Br)ccc21	0.12	0.25	
CC(=O)N1Cc2ccccc2CSc2ccccc21	0.32	0.4	
COC(=O)c1ccccc1-c1ccc2c(c1)CN(C(C)=O)c1ccc(Br)cc1CC2	0.001	0.0007	0.4
CCN1Cc2ccc(Br)cc2CCc2ccccc21	2.2	> 1	
CNC(=O)c1ccccc1-c1ccc2c(c1)CN(C(C)=O)c1ccc(Cl)cc1CC2	0.025	0.025	
CC(=O)N1Cc2ccccc2CSc2cccc(Cl)c21		11.5	
O=C(C1CC1)N1Cc2ccc(Br)cc2CCc2ccccc21	1.75	0.32	
CC(=O)N1Cc2ccccc2CSc2cc(S(C)(=O)=O)ccc21		> 10	
CC(=O)N1Cc2ccccc2CSc2c1ccc(Cl)c2Cl	1.3	0.76	
COc1ccc(-c2ccc3c(c2)CN(C(C)=O)c2ccc(Cl)cc2CC3)cc1	0.048	0.003	
COc1cccc(-c2ccc3c(c2)CN(C(C)=O)c2ccc(Cl)cc2CC3)c1	0.053	0.008	
COc1ccccc1-c1ccc2c(c1)CN(C(C)=O)c1ccc(Cl)cc1CC2	0.005	0.002	
CC(=O)N1Cc2cc(-c3ccccc3)ccc2CCc2ccccc21	0.004		
CC(=O)N1Cc2ccccc2CSc2cc(Cl)ccc21	0.16	0.1	
CC(=O)N1Cc2ccccc2COc2ccccc21		2.97	
CC(=O)N1Cc2ccccc2CNc2ccccc21	> 10	4.74	
CC(=O)N1Cc2cc(-c3ccccc3NS(C)(=O)=O)ccc2CCc2cc(Cl)ccc21	0.009	0.002	
CC(=O)N1Cc2cc(-c3cccc(NS(C)(=O)=O)c3)ccc2CCc2cc(Cl)ccc21	0.19	0.14	
COC(=O)c1cccc(-c2ccc3c(c2)CN(C(C)=O)c2ccc(Cl)cc2CC3)c1	0.002	0.0014	

The remaining lines, values ahead:

IC50 [1] [µM]	IC50 [2] [µM]	Stability (Liver microsomes) [nmol/mg/min]	SMILES
0.17	0.03		CC(=O)N1Cc2ccccc2CSc2ccc(Cl)cc21
0.29	0.09		CC(=O)N1Cc2ccccc2CSc2cc(F)ccc21
0.019	0.003		CC(=O)N1Cc2cc(-c3ccc(C#N)cc3)ccc2CCc2cc(Cl)ccc21
0.87	1		CC(=O)N1Cc2ccccc2CSc2cc(C)ccc21
0.182	0.239		CC(=O)N1Cc2cc(-c3ccccc3CN)ccc2CCc2cc(Cl)ccc21
0.036	0.007		CC(=O)N1Cc2ccc(Br)cc2CCc2ccccc21
0.93	0.28		NC(=O)N1Cc2ccc(Br)cc2CCc2ccccc21
0.015	0.003		CC(=O)N1Cc2cc(-c3cccc(C#N)c3)ccc2CCc2cc(Cl)ccc21
	2.81		CC(=O)N1Cc2ccccc2CSc2ccc(C(F)(F)F)cc21
0.018	0.004		CC(=O)N1Cc2cc(-c3ccccc3)ccc2CCc2cc(Cl)ccc21
0.49	0.49		CC(=O)N1Cc2ccc(N)cc2CCc2ccccc21
0.062	0.005		CC(=O)N1Cc2cc(-c3ccccc3C#N)ccc2CCc2cc(Cl)ccc21
0.0005		0.9	COC(=O)c1ccccc1-c1ccc2c(c1)CN(C(C)=O)c1ccc(Cl)cc1CC2
0.13	0.05		CC(=O)N1Cc2ccccc2CCc2ccc(Cl)cc21
0.0005			CC(=O)c1ccccc1-c1ccc2c(c1)CN(C(C)=O)c1ccc(Cl)cc1CC2
0.002	0.0009		CC(=O)N1Cc2cc(-c3ccccc3CO)ccc2CCc2cc(Cl)ccc21
0.22	0.09		CC(=O)N1Cc2ccccc2CCc2ccccc21
	4.86		CC(=O)N1Cc2ccccc2CSc2cc(O)ccc21
0.63	0.07		CC(=O)N1Cc2ccccc2CCc2cc(Cl)ccc21
0.18	0.29		CC(=O)N1Cc2cc(-c3cccc(CN)c3)ccc2CCc2cc(Cl)ccc21
0.5	0.24		CC(=O)N1Cc2ccccc2/C=C\c2cc(Cl)ccc21
